Values of other authors, collected in patent US20250152607A1, “COMPOSITIONS FOR VITAMIN D PRODUCTION” (DR WELLER LIMITED, priority 2022, published 2025).

Key:
[1] = powder

Molecule: CC(C)[C@@H](C)/C=C/[C@@H](C)[C@H]1CC[C@H]2C3=CC=C4C[C@@H](O)CC[C@]4(C)[C@H]3CC[C@]12C [Ergosterol]
- skin irritancy [1]: skin irritant

Molecule: CC1=C(/C=C\C2=CCC[C@]3(C)[C@@H]([C@H](C)CCCC(C)C)CC[C@@H]23)C[C@@H](O)CC1 [pre-vitamin D3]
- increase in rate of reaction for vitamin D3 formation from pre-vitamin D3 (by interaction with membrane phospholipids): more than 10 fold

Molecule: pre-vitamin D
- time for isomerization of pre-vitamin D to vitamin D to reach equilibrium (in hexane at 37° C.): up to 10 days
